7 compounds from patent publication US20140121233A1, “Synthesis and Characterization of Second Generation Benzofuranone Ring Substituted Noscapine Analogs” (GEORGIA STATE UNIVERSITY RESEARCH FOUNDATION, INC., priority 2011, published 2014) can be followed below.

Like-named read-outs stand apart in the source and are kept apart here.

Data set [1] deals with MCF-7 (breast) cancer cells. The data set can be described thus: MTT cytotoxicity assay, MCF-7. Format: cell-based. The method, then: (§1) CEM (lymphoma), A549 (lung), PC-3 (prostate), MIA PaCa-2 (pancreatic), MCF-7 and MDA-MB-231 (breast) cancer cells were purchased from ATCC. PC3, A549, MDA-MB-231 and CEM were cultured in RPMI-1640 medium supplemented with 10% Fetal Bovine Serum (FBS) and 1% penicillin/streptomycin. MIA PaCa-2 and MCF-7 cells were cultured in DMEM supplemented with 10% FBS and 1% penicillin/streptomycin. Primary human dermal fibroblasts (HDF) from the dermis of normal human neonatal foreskin were obtained from the Dermatology Department, Emory University. MTT dye (Thiazolyl Blue Tetrazolium Bromide) dimethyl sulfoxide (DMSO), propidium iodide and RNase were purchased from Sigma (St. Louis, Mo.). Cells were cultured at 37° C. with 5% CO2.
(§2) MTT (3-(4,5-dimethylthiazol-2-yl)-2,5-diphenyltetrazolium bromide) assay was employed to evaluate the proliferative capacity of cells. Essentially, MTT is a colorimetric assay, which utilizes the […] tetrazolium dye and converts it into a colored formazan salt, which can be quantified by measuring absorbance at 570 nm. Briefly, a 96-well format was used to seed […] medium containing cells at a density of 5×10^3 cellsper well. After 24 h of incubation, cells were treated with gradient concentration of the test compounds, which were dissolved in DMSO. The final concentration of DMSO in the culture medium was maintained at 0.1%. After 48 h of drug incubation, the spent medium was removed and the wells were washed twice with PBS. 100 μl of fresh medium and 10 μl of MTT (5 mg/ml in PBS) was added to the wells and cells were incubated at 37° C. in dark for 4 h. The formazan product was dissolved by adding 100 μl of 100% DMSO after removing the medium from each well. The absorbance was measured at 570 nm using a Spectra Max Plus multi-well plate reader (Molecular Devices, USA).
For orientation: Tetrazolium dyes change colour on reduction, which living cells bring about.

Data set [2] concerns CEM (lymphoma) cancer cells. The data set can be described thus: MTT cytotoxicity assay, CEM. Format: cell-based. The conditions noted are these: 48 h drug incubation. The method, then: as §1, §2
Data set [3] relates to cancer cell lines (A549, CEM, MCF-7, MIA PaCa-2, PC-3). Description: MTT cytotoxicity assay, several cancer cell lines together. Format: cell-based. The conditions noted are these: for antiproliferative activity, comparison in words: across cell lines of Table 3. The protocol:
as §1, §2

Data set [4] concerns PC-3 (prostate) cancer cells. The data set can be described thus: MTT cytotoxicity assay, PC-3. To be noted: 48 h drug incubation. Format: cell-based. The method, then: as §1, §2
The test system of the next data set is A549 (lung) cancer cells. The data set can be described thus: MTT cytotoxicity assay, A549. Format: cell-based. The method, then:
as §1, §2

The subject of data set [5] is MIA PaCa-2 (pancreatic) cancer cells. Description: MTT cytotoxicity assay, MIA PaCa-2. Format: cell-based. The method, then:
as §1, §2

The test system of another data set is MDA-MB-231 cells. The data set can be described thus: Cell-cycle analysis by flow cytometry. To be noted: 25 μM; for G2/M population up to 24 h: 12 and 24 h. Format: cell-based. The method, then: Flow-cytometric evaluation of the cell-cycle status was performed as described previously. Control and drug treated cells were centrifuged, washed with ice-cold PBS, and fixed in 70% ethanol. Tubes containing the cell pellets were stored at 4° C. for at least 24 h. Cells were then centrifuged at 1000 g for 10 min and the supernatant was discarded. The pellets were washed twice with 5 ml of PBS and then stained with 0.5 ml of propidium iodide (0.1% in 0.6% Triton-X in PBS) and 0.5 ml of RNase A (2 mg/ml) for 45 min in dark. Samples were then analyzed on a BD FACSCanto II flow-cytometer (BD Biosciences, Sparks, Md.).
To gain further insights into the precise mechanisms responsible for inhibition of cellular proliferation, we next examined the effect of benzofuranone ring substituted analogs on cell cycle distribution profiles of breast cancer MDA-MB-231 cells. The effect of compounds 3-7 on mitotic index (percent G2/M cells) and apoptotic index (percent sub-G1 cells) as a function of time in MDA-MB-231 cells was studied using fluorescence activated cell sorting (FACS) analysis. All 5 compounds were used at 25 μM concentration over 48 h of treatment.
Although staining of DNA with propidium iodide is extremely useful to determine the percent cell population in various cell-cycle phases, it has its limitations. For example, it cannot dissect out the differences between G2 and M phases as both have 4N DNA amounts. Thus, to explore further, a mitosis specific marker, MPM-2, was used to distinctly identify which phase the cells were in.
For orientation: In flow cytometry, cells or beads pass a laser one at a time.

[6] abbreviates: Homo sapiens, MCF7, 48 h drug incubation.
[7] abbreviates: Homo sapiens, A549, 48 h drug incubation.
The mark [8] stands for this setting: Homo sapiens, MIA PaCa-2, 48 h drug incubation.

Regarding `COc1ccc2c(c1OC(=O)Nc1ccccc1)C(=O)O[C@@H]2[C@H]1c2c(cc3c(c2OC)OCO3)CCN1C` [Compound 6, (S)-5-methoxy-1-0)-4-methoxy-6-methyl-5,6,7,8-tetrahydro-[1,3]dioxolo[4,5-g]isoquinolin-5-yl)-3-oxo-1,3-dihydroisobenzofuran-4-yl phenylcarbamate], the IC50 – broadly, the concentration needed to halve the response being measured – is 182 µM in data set [1] (48 h drug incubation); 250 µM in data set [2]; 50 to 250 µM in data set [3] (majority of the cell lines, read-out: IC50 values, majority of the cell lines); 83.2 µM in data set [4]; 50 µM with A549 (lung) cancer cells (48 h drug incubation); 1 µM in data set [5] (48 h drug incubation).
Take `COc1ccc2c(c1OC(=O)c1ccccc1)C(=O)O[C@@H]2[C@H]1c2c(cc3c(c2OC)OCO3)CCN1C` [Compound 4, (S)-5-methoxy-1-(R)-4-methoxy-6-methyl-5,6,7,8-tetrahydro-[1,3]dioxolo[4,5-g]isoquinolin-5-yl)-3-oxo-1,3-dihydroisobenzofuran-4-yl benzoate]: the half-inhibitory concentration (IC50) is 34 µM in data set [1] (48 h drug incubation); 49 µM in data set [2]; < 5 µM in data set [3] (lung, pancreatic and prostate, read-out: IC50 values, lung, pancreatic and prostate cancer cells); 4.8 µM in data set [4]; 4.5 µM with A549 (lung) cancer cells (48 h drug incubation); 1.7 µM in data set [5] (48 h drug incubation).
With `CCNC(=O)Oc1c(OC)ccc2c1C(=O)O[C@@H]2[C@H]1c2c(cc3c(c2OC)OCO3)CCN1C` [Compound 5], the half-maximal inhibitory concentration (IC50) in data set [1] (48 h drug incubation) is 49 µM; in data set [2], 1.7 µM; in data set [4] it was 6.6 µM; in the data set with A549 (lung) cancer cells (48 h drug incubation), 5.6 µM; in data set [5] (48 h drug incubation), 49 µM. In addition, the “G2/M population up to 24 h” value in the data set on MDA-MB-231 cells was “G2/M population increased considerably”. Besides, in the data set with MDA-MB-231 cells (48 h), the “G2/M population at 48 h” value is recorded as “mostly remained arrested in G2/M phase”. For the same compound, in the data set on MDA-MB-231 cells (48 h), the “apoptotic index (sub-G1)” value is listed as “lower compared to compound 3”. Moreover, the “duration of G2 arrest” value in the data set on MDA-MB-231 cells (MPM-2 marker) is “the arrest was maintained until 48 h”.
With `COc1ccc2c(c1O)C(=O)O[C@@H]2[C@H]1c2c(cc3c(c2OC)OCO3)CCN1C` [Compound 2, (S)-7-hydroxy-6-methoxy-3-((R)-4-methoxy-6-methyl-5,6,7,8-tetrahydro[1,3]dioxolo-[4,5-g]isoquinolin-5-yl)isobenzofuran-1(3H)-one], the melting point – broadly, the temperature of the solid-liquid transition – was 142 to 143 °C.
For the compound `COc1ccc2c(c1OC)C(=O)O[C@@H]2[C@H]1c2c(cc3c(c2OC)OCO3)CCN1C` [Noscapine], the half-inhibitory concentration (IC50) in data set [1] (setting [6]) was determined as 45 µM; in data set [2], 20 µM; in data set [4], 51 µM; in the data set on A549 (lung) cancer cells (setting [7]) it was 73 µM; in data set [5] (setting [8]), 70 µM.
As for `COc1ccc2c(c1OC(C)=O)C(=O)O[C@@H]2[C@H]1c2c(cc3c(c2OC)OCO3)CCN1C` [Compound 3, (S)-5-methoxy-1-(R)-4-methoxy-6-methyl-5,6,7,8-tetrahydro-[1,3]dioxolo[4,5-g]isoquinolin-5-yl)-3-oxo-1,3-dihydroisobenzofuran-4-yl acetate], the 50% inhibitory concentration (IC50) in data set [1] (48 h drug incubation) is 166 µM; in data set [2], 15.5 µM; in data set [3] (lung, lymphoma, pancreatic and prostate, read-out: IC50 values, lung, lymphoma, pancreatic and prostate cancer cells), 1 to 15 µM; in data set [4] it was 9.3 µM; with A549 (lung) cancer cells (48 h drug incubation), 3.2 µM; in data set [5] (48 h drug incubation) it was 1 µM. Besides, the “antiproliferative activity, comparison in words” value in data set [3] is recorded as “generally most-effective against most cell lines”. In the data set on MDA-MB-231 cells, the “G2/M population up to 24 h” value is recorded as “G2/M population increased considerably”. Further, the “G2/M population at 48 h” value in the data set on MDA-MB-231 cells (48 h) was “G2/M population decreased significantly”.
`COc1ccc2c(c1OC(=O)NCc1ccccc1)C(=O)O[C@@H]2[C@H]1c2c(cc3c(c2OC)OCO3)CCN1C` [Compound 7, (S)-5-methoxy-1-((R)-4-methoxy-6-methyl-5,6,7,8-tetrahydro-[1,3]dioxolo[4,5-g]isoquinolin-5-yl)-3-oxo-1,3-dihydroisobenzofuran-4-yl benzylcarbamate]: the half-inhibitory concentration (IC50) in data set [1] (setting [6]) is 74.1 µM; in data set [2], 7.1 µM; in data set [4], 49 µM; in the data set on A549 (lung) cancer cells (setting [7]) it was 25 µM; in data set [5] (setting [8]), 24.5 µM. For the same compound, the “antiproliferative activity, comparison in words” value in data set [3] is reported as “relatively lower IC50 values when compared to compound 6”.
